# Key:
# [1] = molecular target: T1, human ether a go-go related gene (hERG) K′ channel (Homo sapiens, UniProt Q12809); experiment: hERG activity, IonWorks patch clamp electrophysiology (Method 6); type: cell-based
# T1 construct: Essen BioScience
# Protocol: Method 6: Determination of hERG Activity
# Compounds were tested for inhibition of the human ether a go-go related gene (hERG) K′ channel using IonWorks patch clamp electrophysiology at Essen BioScience. 8-Point concentration-response curves of the effect of compound on hERG current as a percentage of pre-compound signal were generated using 3-fold serial dilutions from 11 μM and results are reported as IC50 in μM.
# [2] = tested on: phospho-cdc2 (Tyr15) in HT-29 cells; experiment: Effect on phosphorylation of cdc2 at Tyr15, PathScan ELISA (Method 2); type: cell-based; conditions: Homo sapiens, 8 h, eight hours incubation, read-out: HT29 pCDC2 method 2
# Procedure, shortened: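 HT-29 cells exposed to compound for eight hours at 37° C., then lysed. Phospho-cdc2 (Tyr15) measured by sandwich ELISA with HRP/TMB read-out at 450 nm. Percent of DMSO control plotted vs concentration; IC50 from non-linear regression.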
# T1 sequence (Q12809 whole entry): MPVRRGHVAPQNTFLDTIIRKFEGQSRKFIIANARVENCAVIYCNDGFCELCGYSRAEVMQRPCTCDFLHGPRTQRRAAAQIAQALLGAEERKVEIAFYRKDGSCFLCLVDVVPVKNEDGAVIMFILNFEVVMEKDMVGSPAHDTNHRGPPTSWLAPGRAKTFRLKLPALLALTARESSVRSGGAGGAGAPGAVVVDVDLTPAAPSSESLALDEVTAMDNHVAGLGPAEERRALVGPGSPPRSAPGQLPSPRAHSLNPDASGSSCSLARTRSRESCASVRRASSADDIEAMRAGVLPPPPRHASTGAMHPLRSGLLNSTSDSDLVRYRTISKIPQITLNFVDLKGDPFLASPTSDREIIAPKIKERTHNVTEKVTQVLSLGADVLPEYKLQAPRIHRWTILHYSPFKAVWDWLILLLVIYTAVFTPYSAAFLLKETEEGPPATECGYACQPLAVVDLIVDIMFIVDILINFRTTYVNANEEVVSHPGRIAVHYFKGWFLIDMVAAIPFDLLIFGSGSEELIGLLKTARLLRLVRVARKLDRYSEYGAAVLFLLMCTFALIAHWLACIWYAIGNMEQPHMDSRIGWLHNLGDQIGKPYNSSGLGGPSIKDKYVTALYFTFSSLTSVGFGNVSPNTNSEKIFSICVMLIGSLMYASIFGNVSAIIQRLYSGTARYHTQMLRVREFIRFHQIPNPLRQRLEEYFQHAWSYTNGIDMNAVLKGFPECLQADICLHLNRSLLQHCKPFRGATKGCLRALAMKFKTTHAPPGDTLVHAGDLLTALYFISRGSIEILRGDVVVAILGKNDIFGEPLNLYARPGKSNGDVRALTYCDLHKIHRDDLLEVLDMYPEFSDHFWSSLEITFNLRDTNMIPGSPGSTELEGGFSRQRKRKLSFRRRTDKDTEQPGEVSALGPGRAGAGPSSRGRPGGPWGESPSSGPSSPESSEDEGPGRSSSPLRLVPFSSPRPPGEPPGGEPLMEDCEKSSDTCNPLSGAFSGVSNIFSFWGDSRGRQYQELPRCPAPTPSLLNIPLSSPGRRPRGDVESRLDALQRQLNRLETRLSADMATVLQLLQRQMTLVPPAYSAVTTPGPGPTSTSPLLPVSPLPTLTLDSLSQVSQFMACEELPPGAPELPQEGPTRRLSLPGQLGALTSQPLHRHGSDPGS
IC50 [2] [nM],Compound,IC50 [1] [nM]
≤ 100,"Cc1cc(Nc2ncc3c(n2)N(C)CN(c2c(Cl)cccc2Cl)C3=O)ccc1N1CCNCC1 [Example 6, 3-(2,6-Dichlorophenyl)-1-methyl-7-((3-methyl-4-(piperazin-1-yl)phenyl)amino)-2,3-dihydropyrimido[4,5-d]pyrimidin-4(1H)-one]",> 10000
100 to 1000,"CN1CN(c2c(Cl)cccc2Cl)C(=O)c2cnc(Nc3ccc(N4CCNCC4)cc3)nc21 [Example 1, 3-(2,6-Dichlorophenyl)-1-methyl-7-((4-(piperazin-1-yl)phenyl)amino)-2,3-dihydropyrimido[4,5-d]pyrimidin-4(1H)-one]",> 10000

# Reference: patent US9850247B2 (Almac Discovery Limited, priority 2013, dated 2017)
